Consider 27 compounds from PMC3617406 (Molecular pharmaceutics, 2013).

“Also recorded” adds a separate entry of the source. Structures can show the parent of a compound that is named as a salt. Where two headings read alike, the source gives them in different places. Where only a bound is given, the exact number is not on record here.

Type in all cases: cell-based
For assay [1], the target named is T1, human NTCP (Homo sapiens, UniProt Q14973).
T1 sequence (Q14973 1-349): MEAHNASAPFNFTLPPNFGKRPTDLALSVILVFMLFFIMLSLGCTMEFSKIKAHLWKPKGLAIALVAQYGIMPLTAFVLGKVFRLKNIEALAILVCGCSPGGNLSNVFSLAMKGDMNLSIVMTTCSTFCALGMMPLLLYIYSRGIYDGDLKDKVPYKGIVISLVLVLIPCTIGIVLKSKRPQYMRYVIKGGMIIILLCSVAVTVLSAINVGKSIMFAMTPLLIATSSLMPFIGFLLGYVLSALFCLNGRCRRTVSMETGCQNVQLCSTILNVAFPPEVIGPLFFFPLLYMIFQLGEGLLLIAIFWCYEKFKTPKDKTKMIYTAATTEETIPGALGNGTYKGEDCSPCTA
The following applies: for NTCP inhibitor or non-inhibitor: inhibitor = Ki less than 300 μM; for potency estimated from few doses: read-out: Estimated Ki for NTCP.

In assay [2] the target is T1, human NTCP.
The target of assay [3] is T2, human ASBT (Homo sapiens, UniProt Q12908).
T2 sequence (Q12908 1-348): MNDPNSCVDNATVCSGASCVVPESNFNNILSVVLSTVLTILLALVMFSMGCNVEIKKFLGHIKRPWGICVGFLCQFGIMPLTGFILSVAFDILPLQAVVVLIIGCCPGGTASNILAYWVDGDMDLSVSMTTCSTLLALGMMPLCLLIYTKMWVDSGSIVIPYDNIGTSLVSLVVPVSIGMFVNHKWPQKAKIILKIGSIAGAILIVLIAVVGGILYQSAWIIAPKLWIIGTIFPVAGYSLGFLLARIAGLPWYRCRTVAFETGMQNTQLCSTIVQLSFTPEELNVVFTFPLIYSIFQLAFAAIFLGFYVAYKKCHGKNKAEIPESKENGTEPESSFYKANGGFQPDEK
The conditions noted are these: for potency estimated from few doses: read-out: Estimated Ki for ASBT; for taurocholate uptake into ASBT-MDCK cells, percent of control: single drug concentration, same as in NTCP screening (typically 100 μM); for ASBT inhibitor or non-inhibitor: inhibitor = Ki below 300 μM.

Broadly, the Ki is a measure of affinity in units of concentration, obtained from inhibition or displacement. Read a low Ki as a stronger hold on the target. For `CCCC1O[C@@H]2C[C@H]3[C@@H]4CCC5=CC(=O)C=C[C@]5(C)[C@H]4[C@@H](O)C[C@]3(C)[C@]2(C(=O)CO)O1` (stereo partly shown) [Budesonide], in assay [1], the “NTCP inhibitor or non-inhibitor” value is reported as “inhibited NTCP” and the potency estimated from few doses was 264 ± 94 µM. The compound also showed a Ki in assay [2] of 220 ± 45 µM. For the same compound, in assay [3], the potency estimated from few doses was 62.6 ± 15 µM and the “taurocholate uptake into ASBT-MDCK cells, percent of control” value is recorded as “below 50%”.
Consider `CCOc1nc2cccc(C(=O)O)c2n1Cc1ccc(-c2ccccc2-c2nnn[nH]2)cc1` [Candesartan], for which the “NTCP inhibitor or non-inhibitor” value in assay [1] is listed as “inhibited NTCP”. Besides, the potency estimated from few doses in assay [1] is 145 ± 44 µM; in assay [3], 67.6 ± 30 µM. In assay [2], this compound came in with a Ki of 233 ± 37 µM.
Consider `COc1ccc([C@@H]2Sc3ccccc3N(CCN(C)C)C(=O)[C@@H]2OC(C)=O)cc1` [Diltiazem], for which the potency estimated from few doses in assay [1] is 460 ± 232 µM; in assay [3], 237 ± 21 µM. The inhibition constant (Ki) in assay [2] is 599 ± 212 µM.
Turning to `COc1cc2nc(N3CCN(C(=O)C4COc5ccccc5O4)CC3)nc(N)c2cc1OC` (stereo not shown) [Doxazosin], in assay [1], the “NTCP inhibitor or non-inhibitor” value was “inhibited NTCP” and the potency estimated from few doses is 41.2 ± 7.1 µM. The Ki in assay [2] worked out at 35.3 ± 5.4 µM. The potency estimated from few doses in assay [3] was 20.9 ± 7.3 µM.
On to `COc1ccc2c(c1)c(CC(=O)O)c(C)n2C(=O)c1ccc(Cl)cc1` [Indomethacin], for which, in assay [1], the “NTCP inhibitor or non-inhibitor” value is “NTCP inhibitors” and the potency estimated from few doses is 141 ± 14 µM. This compound registered a Ki in assay [2] of 173 ± 24 µM. Besides, in assay [3], the potency estimated from few doses was 31.3 ± 7.7 µM and the “taurocholate uptake into ASBT-MDCK cells, percent of control” value was “below 50%”.
Regarding `CC(=O)N1CCN(c2ccc(OCC3COC(Cn4ccnc4)(c4ccc(Cl)cc4Cl)O3)cc2)CC1` (stereo not shown) [Ketoconazole], in assay [1], the “NTCP inhibitor or non-inhibitor” value was “NTCP inhibitors” and the potency estimated from few doses was 98.8 ± 12 µM. In addition, the affinity in assay [2], expressed as Ki, was 202 µM. Besides, in assay [3], the “ASBT inhibitor or non-inhibitor” value is “ASBT inhibitors”; the potency estimated from few doses is 61.9 ± 27 µM; the “taurocholate uptake into ASBT-MDCK cells, percent of control” value is listed as “below 50%”.
On to `CC(C(=O)O)c1cccc(C(=O)c2ccccc2)c1` (stereo not shown) [Ketoprofen], for which the results for the potency estimated from few doses in assay [1] and in assay [3] were 361 ± 178 µM and 480 ± 609 µM, respectively. The same compound gave a Ki in assay [2] of 321 ± 57 µM.
For the compound `C[C@H]1C[C@@H]2[C@H]([C@@H](O)C[C@@]3(C)[C@H]2CC[C@]3(O)C(=O)CO)[C@@]2(C)C=CC(=O)C=C12` [Methylprednisolone], in assay [1] (Ki values of Table 4 and 5), the “fold more potent NTCP inhibition than ASBT inhibition” value was at least 10 fold. In assay [1], the “NTCP inhibitor or non-inhibitor” value is “NTCP inhibitors; also recorded: inhibited NTCP but not ASBT” and the potency estimated from few doses is 255 ± 53 µM. This compound also had an inhibition constant Ki in assay [2] of 238 ± 33 µM. In addition, in assay [3], the “ASBT inhibitor or non-inhibitor” value is “inhibited NTCP but not ASBT” and the potency estimated from few doses is over 100 µM.
For `CC(C)[C@H]1CC[C@H](C(=O)N[C@H](Cc2ccccc2)C(=O)O)CC1` [Nateglinide], in assay [1], the “NTCP inhibitor or non-inhibitor” value is reported as “inhibited NTCP” and the potency estimated from few doses is 111 ± 7 µM. The same compound had a Ki in assay [2] of 200 ± 32 µM. For the same compound, the potency estimated from few doses in assay [3] is 77 ± 16 µM.
Turning to `CCc1nn(CCCN2CCN(c3cccc(Cl)c3)CC2)c(=O)n1CCOc1ccccc1` [Nefazodone], in assay [1], the “NTCP inhibitor or non-inhibitor” value is listed as “NTCP inhibitors” and the potency estimated from few doses was 100 ± 8 µM. The affinity in assay [2], expressed as Ki, was 126 ± 20 µM. In addition, in assay [3], the potency estimated from few doses was 30.8 ± 3.6 µM and the “taurocholate uptake into ASBT-MDCK cells, percent of control” value is on record as “below 50%”.
Take `COC(=O)C1=C(C)NC(C)=C(C(=O)OCCN(C)Cc2ccccc2)C1c1cccc([N+](=O)[O-])c1` (stereo not shown) [Nicardipine]: the values for the potency estimated from few doses in assay [1] and in assay [3] were 309 ± 144 µM and 142 ± 3 µM, respectively.
On to `COc1ccc2[nH]c([S+]([O-])Cc3ncc(C)c(OC)c3C)nc2c1` (stereo not shown) [Omeprazole], for which the potency estimated from few doses was over 100 µM in assay [1] and 103 ± 23 µM in assay [3]. The “fold more potent ASBT inhibition than NTCP inhibition” value in assay [3] (Ki values of Table 4 and 5) is reported as at least 10 fold.
As to `CCOC(=O)C1=C[C@@H](OC(CC)CC)[C@H](NC(C)=O)[C@@H](N)C1` [Oseltamivir], the results for the potency estimated from few doses in assay [1] and in assay [3] were over 100 µM and 1020 ± 49 µM, respectively.
`C[C@]12C=CC(=O)C=C1CC[C@@H]1[C@@H]2[C@@H](O)C[C@@]2(C)[C@H]1CC[C@]2(O)C(=O)CO` [Prednisolone]: the values for the potency estimated from few doses in assay [1] and in assay [3] were 335 ± 177 µM and 89.2 ± 32 µM, respectively.
For the compound `CCCN(CCC)S(=O)(=O)c1ccc(C(=O)O)cc1` [Probenecid], the potency estimated from few doses in assay [1] is 435 ± 114 µM; in assay [3] it was 425 ± 155 µM. The same compound had an inhibition constant Ki in assay [2] of 544 ± 217 µM.
`CCN(CC)CCNC(=O)c1ccc(N)cc1` [Procainamide HCl]: the potency estimated from few doses is 384 ± 185 µM in assay [1] and over 100 µM in assay [3].
For the compound `CN1CCN(CCCN2c3ccccc3Sc3ccc(Cl)cc32)CC1` [Prochlorperazine], in assay [1], the “NTCP inhibitor or non-inhibitor” value is on record as “NTCP inhibitors” and the potency estimated from few doses was 280 ± 37 µM. For the same compound, the inhibition constant (Ki) in assay [2] amounted to 209 ± 27 µM. Besides, in assay [3], the potency estimated from few doses is 27.4 ± 4.6 µM and the “taurocholate uptake into ASBT-MDCK cells, percent of control” value was “below 50%”.
As to `CCCNCC(O)COc1ccccc1C(=O)CCc1ccccc1` (stereo not shown) [Propafenone HCl], the potency estimated from few doses in assay [1] is 402 ± 116 µM; in assay [3], 50.3 ± 18 µM.
Taken in the same sequence, the figures for `C=C[C@H]1C[N@@]2CC[C@H]1C[C@H]2[C@H](O)c1ccnc2ccc(OC)cc12` [Quinine] were 1490 ± 581 µM and 239 ± 117 µM.
Turning to `COC(=O)[C@H]1[C@H]2C[C@@H]3c4[nH]c5cc(OC)ccc5c4CCN3C[C@H]2C[C@@H](OC(=O)c2cc(OC)c(OC)c(OC)c2)[C@@H]1OC` [Reserpine], the “NTCP inhibitor or non-inhibitor” value in assay [1] is listed as “inhibited human NTCP”; in assay [1] (listed as reserpine), “inhibited NTCP”. Further, the values for the potency estimated from few doses in assay [1] and in assay [3] were 89.1 ± 65 µM and 21.6 ± 2.9 µM, respectively.
For `CCCN(CCC)CCc1cccc2c1CC(=O)N2` [Ropinirole], the potency estimated from few doses in assay [1] was over 100 µM. In assay [3], the potency estimated from few doses is 30.3 ± 11 µM and the “taurocholate uptake into ASBT-MDCK cells, percent of control” value is recorded as “below 50%”.
For the compound `Nc1ccc(S(N)(=O)=O)cc1` [Sulfanilamide], the “NTCP inhibitor or non-inhibitor” value in assay [1] is “inhibited NTCP”. The potency estimated from few doses was 250 ± 50 µM in assay [1] and 194 ± 24 µM in assay [3].
Consider `O=C1C(CC[S+]([O-])c2ccccc2)C(=O)N(c2ccccc2)N1c1ccccc1` (stereo not shown) [Sulfinpyrazone], for which the results for the potency estimated from few doses in assay [1] and in assay [3] were 1660 ± 2870 µM and 529 ± 600 µM, respectively.
Take `CN1CCN(CC/C=C2/c3ccccc3Sc3ccc(S(=O)(=O)N(C)C)cc32)CC1` [Thiothixene]: the potency estimated from few doses in assay [1] and in assay [3] was over 100 µM in each case.
As to `Nc1nc(N)c2nc(-c3ccccc3)c(N)nc2n1` [Triamterene], the potency estimated from few doses in assay [1] was 411 ± 139 µM; in assay [3], 110 ± 3 µM.
Regarding `CC(=O)CC(c1ccccc1)c1c(O)c2ccccc2oc1=O` (stereo not shown) [Warfarin], the potency estimated from few doses is over 100 µM in assay [1] and 97.4 ± 26 µM in assay [3].
Regarding `COC(=O)[C@@H]1[C@H]2C[C@H]3c4[nH]c5ccccc5c4CCN3C[C@@H]2CC[C@@H]1O` [Yohimbine], the potency estimated from few doses was over 100 µM in assay [1] and 377 ± 442 µM in assay [3].
